We go through one compound from patent publication US6284769A, “Nonpeptide kappa opioid receptor antagonists” (The Board of Trustees of the University of Illinois, priority 1999, dated 2001).

Where two headings read alike, the source gives them in different places.

Assay [1] concerns the target T1, μ opioid receptor (Homo sapiens, UniProt P35372).
T1 construct: expressed in transfected cells; host or cells: Chinese hamster ovary (CHO) cells, membranes
Put plainly: [35S]GTPγS agonist/antagonist assay, μ-CHO membrane. Type of assay: biochemical. As to the method: (§1) Opioid receptor activity studies were carried out by the method of the Opiate Treatment Discovery Program of the National Institutes of Health. Receptor binding studies were conducted on Chinese hamster ovary (CHO) cells which had been transfected with human DNA encoding for the μ, δ, and κ opiate receptors, respectively.
(§2) The cell line expressing the μ opioid receptor is maintained in Ham's F-12 medium supplemented with 10% fetal bovine serum and 400 μg/ml GENETICIN (G418 sulfate). The cell line expressing the δ opioid receptor is maintained in Ham's F-12 medium supplemented with 10% fetal bovine serum and 500 μg/ml hygromycin B. The cell line expressing the κ opioid receptor is maintained in Dulbecco's minimal essential medium (DMEM) supplemented with 10% fetal bovine serum, 400 μg/ml GENETICIN (G418 sulfate), and 0.1% penicillin/streptomycin. All cell lines are grown to full confluency, then harvested for membrane preparation. The membrane used for functional assays is prepared in buffer A (20 mM HEPES, 10 mM MgCl2, and 100 mM NaCl at pH 7.4) and the membrane for binding assays is prepared in 50 mM Tris buffer, pH 7.7. Cells are harvested by scraping the plates with a rubber policeman and then centrifuged at 500 times gravity for 10 minutes. […]
(§3) Analysis of the data for IC50 values and Hill coefficients was performed using the program PRISM. Opioid receptor binding constants, Ki, were calculated using the Cheng-Prusoff transformation, Ki=IC50 /(1+L/Kd), where L is radioligand concentration and Kd is the binding affinity of the radioligand, as determined previously by saturation analysis. […] Samples were filtered over glass fiber filters and counted as described for the binding assays. […]
(§4) Agonist activity at μ, δ and κ receptors is reported as % stimulation relative to the respective agonists DAMGO, Cl-DPDPE, and U69,593. […] A full Schild analysis was conducted, utilizing a full agonist dose response curve in the presence of at least three concentrations of the antagonist. pA2 values and Schild slopes were determined using a statistical program designed for these experiments.

Assay [2] can be described thus: In vivo analgesic testing on rats. To be noted: result in words.
Assay [3] has as its target T2, κ opioid receptor (Homo sapiens, UniProt P41145).
T2 construct: expressed in transfected cells; host or cells: Chinese hamster ovary (CHO) cells, membranes
Put plainly: Receptor binding, [3H]U69,593, membranes of transfected CHO cells. To be noted: CHO cell membranes, radioligand [3H]U69,593, 1 hour at 25° C., SEM in brackets. How it is done: as §1
The cell line expressing the μ opioid receptor is maintained in Ham's F-12 medium supplemented with 10% fetal bovine serum and 400 μg/ml GENETICIN (G418 sulfate). […]
Cell membranes were incubated with the appropriate radioligand and unlabeled compounds of Example 1 in a total volume of 200 μl in 96-well plates, usually for 1 hour at 25° C. […] Filters were dried overnight before radioactivity levels were determined. Nonspecific binding was determined by using 1.0 μM of the unlabeled counterpart of each radioligand.
as §3

Assay [4] concerns the target T3, δ opioid receptor (Homo sapiens, UniProt P41143).
T3 construct: expressed in transfected cells; host or cells: Chinese hamster ovary (CHO) cells, membranes
Nature of the assay: [35S]GTPγS agonist/antagonist assay, δ-CHO membrane. Type of assay: biochemical. As to the method: as §1
(§5) The cell line expressing the μ opioid receptor is maintained in Ham's F-12 medium supplemented with 10% fetal bovine serum and 400 μg/ml GENETICIN (G418 sulfate). The cell line expressing the δ opioid receptor is maintained in Ham's F-12 medium supplemented with 10% fetal bovine serum and 500 μg/ml hygromycin B. The cell line expressing the κ opioid receptor is maintained in Dulbecco's minimal essential medium (DMEM) supplemented with 10% fetal bovine serum, 400 μg/ml GENETICIN (G418 sulfate), and 0.1% penicillin/streptomycin. All cell lines are grown to full confluency, then harvested for membrane preparation. The membrane used for functional assays is prepared in buffer A (20 mM HEPES, 10 mM MgCl2, and 100 mM NaCl at pH 7.4) and the membrane for binding assays is prepared in 50 mM Tris buffer, pH 7.7. Cells are harvested by scraping the plates with a rubber policeman and then centrifuged at 500 times gravity for 10 minutes. The cell pellet is suspended in buffer A or Tris buffer, homogenized in a Polytron Homogenizer, and centrifuged at 20,000 times gravity for 20 minutes. The cell pellet is washed in buffer A or Tris, centrifuged at 20,000 times gravity for another 20 minutes, and, finally, suspended in a small amount of buffer to determine protein content. Membrane is aliquoted in small vials at a concentration of 6 mg/ml per vial, stored at -70° C., and used as needed.
(§6) Samples were filtered over glass fiber filters and counted as described for the binding assays.

Assay [5] concerns the target T3, δ opioid receptor. Nature of the assay: Receptor binding, [3H]Cl-DPDPE, membranes of transfected CHO cells. Particulars: CHO cell membranes, radioligand [3H]Cl-DPDPE, 1 hour at 25° C., SEM in brackets. How it is done:
as §1, §2, §6

The subject of the next assay is δ receptor of the T-cell. Put plainly: Stimulatory activity at the δ receptor of the T-cell of the immune system. Type of assay: cell-based. To be noted: result in words.
The target in assay [6] is T1, μ opioid receptor. Put plainly: Receptor binding, [3H]DAMGO, membranes of transfected CHO cells. As to the method: as §1, §5
Binding assays were conducted using [^3 H]DAMGO, [^3 H]Cl-DPDPE and [^3 H]U69,593 as labelling ligands specific for μ, δ and κ opioid receptors, respectively. DAMGO is Tyr-D-Ala-Gly-NMePhe-[…]. The structural formulae for U69,593 and Cl-DPDPE are [drawing 10] […]
as §6

Assay [7] addresses T2, κ opioid receptor. Nature of the assay: [35S]GTPγS agonist/antagonist assay with Schild analysis, κ-CHO membrane. It is filed as biochemical. How it is done: as §1, §5
Analysis of the data for IC50 values and Hill coefficients was performed using the program PRISM. Opioid receptor binding constants, Ki, were calculated using the Cheng-Prusoff transformation, Ki=IC50 /(1+L/Kd), where L is radioligand concentration and Kd is the binding affinity of the radioligand, as determined previously by saturation analysis. See Y. C. Cheng et al., Biochem. Pharmacol., 22, p. 3099-3102 (1973). […] Samples were filtered over glass fiber filters and counted as described for the binding assays. […]
as §4

Where [8] appears, read: [35S]GTPγS, 60 min at 25° C., SEM in brackets.

T2 sequence (P41145 whole entry): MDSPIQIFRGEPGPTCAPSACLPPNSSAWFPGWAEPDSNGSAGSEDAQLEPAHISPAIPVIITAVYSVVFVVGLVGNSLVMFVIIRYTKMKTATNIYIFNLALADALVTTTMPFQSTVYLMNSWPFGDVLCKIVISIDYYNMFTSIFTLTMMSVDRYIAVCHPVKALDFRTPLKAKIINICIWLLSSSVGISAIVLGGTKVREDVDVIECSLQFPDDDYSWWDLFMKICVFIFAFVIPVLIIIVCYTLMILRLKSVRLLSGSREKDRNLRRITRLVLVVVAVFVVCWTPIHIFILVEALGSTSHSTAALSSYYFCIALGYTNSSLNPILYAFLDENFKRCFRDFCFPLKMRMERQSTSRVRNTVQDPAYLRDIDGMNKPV
T3 sequence (P41143 whole entry): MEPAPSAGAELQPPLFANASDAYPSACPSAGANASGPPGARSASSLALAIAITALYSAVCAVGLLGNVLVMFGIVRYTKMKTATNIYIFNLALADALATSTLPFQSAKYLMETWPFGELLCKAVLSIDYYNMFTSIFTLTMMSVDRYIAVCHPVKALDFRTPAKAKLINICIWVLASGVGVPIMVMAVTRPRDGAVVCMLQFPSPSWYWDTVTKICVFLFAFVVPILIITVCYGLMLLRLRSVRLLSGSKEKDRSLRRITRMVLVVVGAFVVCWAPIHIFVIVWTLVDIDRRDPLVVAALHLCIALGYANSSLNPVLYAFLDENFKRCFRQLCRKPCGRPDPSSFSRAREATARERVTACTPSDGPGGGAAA
T1 sequence (P35372 whole entry): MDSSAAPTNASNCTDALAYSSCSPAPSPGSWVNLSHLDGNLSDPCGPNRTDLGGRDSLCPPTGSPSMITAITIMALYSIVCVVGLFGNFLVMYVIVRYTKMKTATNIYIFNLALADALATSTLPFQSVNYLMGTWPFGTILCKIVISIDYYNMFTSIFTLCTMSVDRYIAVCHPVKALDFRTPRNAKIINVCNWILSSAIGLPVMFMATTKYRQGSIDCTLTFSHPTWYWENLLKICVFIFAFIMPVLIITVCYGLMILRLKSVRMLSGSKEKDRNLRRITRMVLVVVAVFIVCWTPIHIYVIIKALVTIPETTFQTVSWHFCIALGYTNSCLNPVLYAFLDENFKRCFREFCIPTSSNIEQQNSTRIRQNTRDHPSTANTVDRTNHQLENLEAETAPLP

In the case of `CN1CC[C@]23c4c5ccc(O)c4O[C@H]2c2n[nH]cc2C[C@@]3(O)[C@H]1C5` [Example 1, 17-Methyl-6,7-dehydro-3,14-hydroxy-4,5α-epoxy-6,7:5',4'(6,7: 3',4')pyrazolomorphin (tautomers)], the Emax stood at 80.3% on μ opioid receptor [1] (1 h, [35S]GTPγS, relative to full agonist DAMGO, read-out: % Stimulation μ-CHO membrane) and 75.2% on δ opioid receptor [4] (1 h, [35S]GTPγS, relative to full agonist Cl-DPDPE, read-out: % Stimulation δ-CHO membrane). For the same compound, the EC50 on μ opioid receptor [1] (setting [8]) is 19.3 nM; at δ opioid receptor [4] (setting [8]), 25 nM. For the same compound, the “Agonist/antagonist property at the μ receptor” value at μ opioid receptor [1] (result in words) is listed as “agonist”. In addition, the Analgesic activity result in assay [2] was “potent analgesic activity”. Besides, the “Duration of analgesic activity” value in assay [2] is listed as “long duration of activity”. Besides, the Ki was 12.3 nM on κ opioid receptor [3]; 19.1 nM at δ opioid receptor [5]; 3.75 nM at μ opioid receptor [6] (CHO cell membranes, human μ receptor, radioligand [3H]DAMGO, 1 hour at 25° C., SEM in brackets). Moreover, on δ opioid receptor [4] (result in words), the “Agonist/antagonist property at the δ receptor” value was “agonist”. Besides, the “Stimulatory activity at the δ receptor of the T-cell” value in the assay with δ receptor of the T-cell was “weak stimulatory activity”. Also, the “Selectivity: affinity for μ over δ” value on μ opioid receptor [6] (ratio of binding affinities, μ versus δ) is recorded as “about 7 times”. For the same compound, on μ opioid receptor [6] (ratio of binding affinities, μ versus κ), the “Selectivity: affinity for μ over κ” value is “about 7 times”. Besides, the Kb on κ opioid receptor [7] ([35S]GTPγS, antagonism, agonist U69,593, SEM in brackets, read-out: Ke (SEM) κ-CHO membrane) is 59.3 nM; on κ opioid receptor [7] (full Schild analysis, κ-CHO membrane, read-out: pA2 value (converted)), 51.3 nM. Moreover, on κ opioid receptor [7] (full Schild analysis, κ-CHO membrane), the Schild slope was -0.92±0.32. Also, at κ opioid receptor [7] (result in words), the “Agonist/antagonist property at the κ receptor” value was “antagonist”.
